Tests used:
U2OS cells = experiment: CIP2A/TOPBP1 mitotic foci and filaments after aphidicolin; assay type: cell-based, human; settings: 400 nM aphidicolin, 16 h; wild type and MDC1−/− U2OS; mostly independent of MDC1
Description: For the experiments relating to the mitotic structures labelled by CIP2A and TOPBP1, U2OS wild-type and MDC1^-/- cell lines were seeded on coverslips and either treated with 400 nM aphidicolin for 16 h (overnight) or left untreated. In order to perform immunofluorescence, cells were quickly washed once with cold PBS and then fixed with ice-cold methanol for 10 min on ice. Methanol was discarded and cells were washed two times with PBS before incubation with blocking buffer (10% FBS in PBS) for at least 1 h. Incubation with primary antibodies diluted in 5% FBS-PBS was performed overnight at 4° C. in a humidity chamber. Coverslips were then washed 3×10 min with blocking buffer and incubated with AlexaFluor-conjugated secondary antibodies for 1 h at room temperature in the dark. After washing 3×10 min with PBS, coverslips were mounted on glass microscopy slides (Thermo Scientific, 630-1985, dimensions […]×[…] mm) with […] mounting medium containing 0.5 μg/mL (DAPI) (Vector Laboratories, H-1200). Confocal images were acquired using a Leica SP8 inverse confocal laser scanning microscope with a 63×, 1.4-NA Plan-Apochromat oil-immersion objective. […] Images were recorded using optimal pixel size based on Nyquist criterion. […] Quantification of the foci was performed manually based on maximum intensity projections. […]

DLD1 BRCA2−/− cells = experiment: Micronuclei (MNi) assay after B6L induction; assay type: cell-based, human; settings: BRCA2−/− cells held in G2 with RO-3306 prior to release in mitosis
Description: For TOPBP1 rescue experiments, DLD1 wild-type and BRCA2^−/− cells stably expressing 2×HA-TOPBP1 were generated by viral transduction and selection with blasticidin (7.5 μg/mL for parental cells, 10 μg/mL for BRCA2^−/− cells). 3 days after transduction with sgRNA viral particles (as described in the clonogenic survival assays), cells were seeded in a 96-well plate (1,500 for wild-type cells; 4,000 for BRCA2^−/− cells) and cultured for 4 additional days. For inducible B6L expression experiments, DLD1 and MDA-MB-436 cells were seeded in a 96-well plate (1,500 for DLD1 wild-type cells; 4,000 for DLD1 BRCA2^−/− cells; 14,000 for MDA-MB-436) and cultured for up to 4 days in the presence of Aqua-Shield-1.
For detection of micronuclei, cells were fixed with 2% PFA, washed 3 times with PBS, permeabilized with 0.3% Triton X-100 in PBS for 5 min, washed 3 times with PBS, incubated for 1 h with PBS+DAPI (0.5 μg/mL). Alternatively, cells were stained for immunofluorescence (CENPA detection). After the last wash with PBS, images were acquired on an IN Cell Analyzer 6000 automated microscope (GE Life Sciences) with a 40× objective. Micronuclei were automatically detected and counted using the Columbus analysis tool (PerkinElmer).

Row | Compound | frequency of CIP2A-TOPBP1 foci and filaments in mitotic cells (U2OS cells) | B6L-induced micronucleation after holding cells in G2 (DLD1 BRCA2−/− cells)
1 | C[C@@]1(CO)[C@H](O)CC[C@@]2(C)[C@H]1CC[C@H]1C[C@@H]3C[C@@]12CC[C@]3(O)CO [aphidicolin] | increased | –
2 | O=C1NC(=NCc2cccs2)S/C1=C\c1ccc2ncccc2c1 [RO-3306] | – | completely suppressed B6L-induced micronucleation
